{"source": "ChEMBL document CHEMBL3414447", "about": "“Structure-guided design of a series of MCL-1 inhibitors with high affinity and selectivity” (J Med Chem, 2015)", "key": {"[1]": {"molecular_target": "T1, Induced myeloid leukemia cell differentiation protein Mcl-1 (Homo sapiens, UniProt Q07820)", "T1 sequence (Q07820 whole entry)": "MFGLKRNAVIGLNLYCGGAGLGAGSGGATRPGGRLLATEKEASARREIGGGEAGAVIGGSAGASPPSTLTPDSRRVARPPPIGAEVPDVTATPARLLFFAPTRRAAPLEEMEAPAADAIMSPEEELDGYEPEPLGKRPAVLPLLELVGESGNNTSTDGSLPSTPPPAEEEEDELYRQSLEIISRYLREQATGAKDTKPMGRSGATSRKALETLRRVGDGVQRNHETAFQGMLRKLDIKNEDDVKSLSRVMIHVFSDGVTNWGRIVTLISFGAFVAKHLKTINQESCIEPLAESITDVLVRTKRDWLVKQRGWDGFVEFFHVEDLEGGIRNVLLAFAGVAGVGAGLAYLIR"}, "[2]": {"molecular_target": "T1, Induced myeloid leukemia cell differentiation protein Mcl-1", "remark": "listed apart in the source"}, "[3]": {"molecular_target": "T1, Induced myeloid leukemia cell differentiation protein Mcl-1", "remark": "listed apart in the source", "description": "(§1) Displacement of fluorescent labeled NOXA peptide from recombinant human MCL1 by fluorescence polarization assay"}, "[4]": {"molecular_target": "T1, Induced myeloid leukemia cell differentiation protein Mcl-1", "remark": "listed apart in the source", "description": "Displacement of fluorescent labeled NOXA peptide from recombinant human MCL1 by fluorescence polarization assay in presence of 1% human serum"}, "[5]": {"molecular_target": "T1, Induced myeloid leukemia cell differentiation protein Mcl-1", "test": "Ratio of Ki(app) for MCL1 (unknown origin) by TR-FRET assay in presence of 10% human serum to Ki(app) for MCL1 (unknown origin) by TR-FRET assay in absence of 10% human serum"}, "[6]": {"molecular_target": "T1, Induced myeloid leukemia cell differentiation protein Mcl-1", "remark": "listed apart in the source", "description": "as §1"}, "[7]": {"molecular_target": "T1, Induced myeloid leukemia cell differentiation protein Mcl-1", "test": "Displacement of fluorescent labeled NOXA peptide from recombinant MCL1 (unknown origin) after 15 mins by fluorescence polarization assay"}, "Bcl-2-like protein 1 [8]": {"molecular_target": "T2, Bcl-2-like protein 1 (Homo sapiens, UniProt Q07817)", "T2 sequence (Q07817 whole entry)": "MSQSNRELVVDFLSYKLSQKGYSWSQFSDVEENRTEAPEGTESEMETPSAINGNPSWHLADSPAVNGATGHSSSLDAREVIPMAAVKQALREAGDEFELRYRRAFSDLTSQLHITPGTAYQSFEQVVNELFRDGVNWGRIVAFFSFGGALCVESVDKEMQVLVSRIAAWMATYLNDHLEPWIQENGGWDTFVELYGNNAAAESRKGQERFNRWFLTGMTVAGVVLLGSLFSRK", "test": "Inhibition of BCL-XL (unknown origin) by fluorescence polarization assay"}, "[9]": {"molecular_target": "T3, Apoptosis regulator Bcl-2 (Homo sapiens, UniProt P10415)", "T3 sequence (P10415 whole entry)": "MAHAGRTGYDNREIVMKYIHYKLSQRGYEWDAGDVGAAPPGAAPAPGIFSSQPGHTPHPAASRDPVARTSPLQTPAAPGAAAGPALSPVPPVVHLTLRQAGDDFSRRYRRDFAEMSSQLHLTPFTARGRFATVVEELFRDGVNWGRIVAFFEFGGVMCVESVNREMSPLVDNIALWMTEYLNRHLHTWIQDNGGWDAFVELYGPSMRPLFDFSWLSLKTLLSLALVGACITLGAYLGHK", "test": "Inhibition of BCL-2 (unknown origin) by fluorescence polarization assay"}, "Albumin": {"molecular_target": "Albumin (Homo sapiens, UniProt P02768)", "sequence (P02768 whole entry)": "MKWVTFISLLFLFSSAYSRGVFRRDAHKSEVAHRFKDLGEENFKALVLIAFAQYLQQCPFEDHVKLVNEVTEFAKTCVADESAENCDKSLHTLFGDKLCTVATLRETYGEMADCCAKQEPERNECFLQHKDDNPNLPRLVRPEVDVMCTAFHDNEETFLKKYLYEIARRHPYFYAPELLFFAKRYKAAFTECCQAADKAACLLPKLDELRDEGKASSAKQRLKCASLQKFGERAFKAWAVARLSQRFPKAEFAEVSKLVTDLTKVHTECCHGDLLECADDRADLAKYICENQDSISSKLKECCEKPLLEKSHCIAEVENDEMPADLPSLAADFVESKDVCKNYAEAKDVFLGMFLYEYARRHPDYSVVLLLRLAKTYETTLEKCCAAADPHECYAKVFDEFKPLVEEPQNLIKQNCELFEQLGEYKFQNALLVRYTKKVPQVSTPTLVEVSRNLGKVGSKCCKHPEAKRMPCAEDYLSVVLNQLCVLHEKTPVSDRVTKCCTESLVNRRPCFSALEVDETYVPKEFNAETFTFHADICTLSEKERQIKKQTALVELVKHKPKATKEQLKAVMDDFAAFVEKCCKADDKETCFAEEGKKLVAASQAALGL", "description": "Displacement of probe S1 from recombinant human serum albumin domain 3 after 5 mins by fluorescence polarization assay"}, "[10]": {"molecular_target": "T3, Apoptosis regulator Bcl-2"}, "Bcl-2-like protein 1 [11]": {"molecular_target": "T2, Bcl-2-like protein 1"}, "Bcl-2-like protein 2": {"molecular_target": "T4, Bcl-2-like protein 2 (Homo sapiens, UniProt Q92843)", "T4 sequence (Q92843 whole entry)": "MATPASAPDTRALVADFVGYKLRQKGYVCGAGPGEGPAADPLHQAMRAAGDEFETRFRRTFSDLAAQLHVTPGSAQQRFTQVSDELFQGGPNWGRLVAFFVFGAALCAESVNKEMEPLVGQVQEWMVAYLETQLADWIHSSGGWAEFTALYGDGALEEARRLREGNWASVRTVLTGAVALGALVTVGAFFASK", "test": "Inhibition of BCL-W (unknown origin) after 1 hr by TR-FRET assay"}, "Bcl-2-related protein A1": {"molecular_target": "T5, Bcl-2-related protein A1 (Homo sapiens, UniProt Q16548)", "T5 sequence (Q16548 whole entry)": "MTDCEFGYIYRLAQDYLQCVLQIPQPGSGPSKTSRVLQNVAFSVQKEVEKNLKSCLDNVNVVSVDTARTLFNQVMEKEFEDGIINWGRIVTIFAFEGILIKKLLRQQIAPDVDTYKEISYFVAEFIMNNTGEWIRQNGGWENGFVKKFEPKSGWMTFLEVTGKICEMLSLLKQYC", "test": "Inhibition of BCL2-A1 (unknown origin) after 1 hr by TR-FRET assay"}, "[12]": {"molecular_target": "T1, Induced myeloid leukemia cell differentiation protein Mcl-1", "test": "Inhibition of MCL-1 in human H929 cells assessed as induction of caspase3/7 activation after 4 hrs by caspase-Glo 3/7 assay in presence of 0.1 to 10% fetal bovine serum", "type": "cell-based"}, "[13]": {"molecular_target": "T1, Induced myeloid leukemia cell differentiation protein Mcl-1", "test": "Inhibition of MCL-1 in human H929 cells assessed as loss in cell viability after 4 hrs by CellTiter-Glo assay in presence of 0.1 to 10% fetal bovine serum", "type": "cell-based"}, "[14]": {"test": "Fraction unbound in human plasma after 4.5 hrs by equilibrium dialysis method", "type": "ADME, cell-free"}, "[15]": {"molecular_target": "T1, Induced myeloid leukemia cell differentiation protein Mcl-1", "test": "Inhibition of MCL-1 in human BXPC3 cells assessed as reduction of navitoclax EC50 at 20 uM after 72 hrs by CellTiter-Glo assay in presence of 10% fetal bovine serum", "type": "cell-based", "settings": "BXPC-3"}}, "note": "pKi: −log10 of the molar value. Active and inactive are the calls of the source. No cut-off for these calls is given here.", "data": [{"smiles": "CCCS(=O)(=O)N1CCN(c2ccc(OCc3c(-c4cccc5c(CCCOc6cccc7ccccc67)c(C(=O)O)n(CCN6CCOCC6)c45)c(C)nn3C)cc2)CC1", "values": [{"measurement": "pKi", "setting": "[1]", "result": 9.51}, {"measurement": "pKi", "setting": "[2]", "result": 8.06}]}, {"smiles": "Cc1cccc(-c2cccc3c(CCCOc4cccc5ccccc45)c(C(=O)O)[nH]c23)c1", "values": [{"measurement": "pKi", "setting": "[3]", "result": 6.80}, {"measurement": "pKi", "setting": "[4]", "result": 5.09}]}, {"smiles": "CC(=O)N1CCN(c2ccc(OCc3c(-c4cccc5c(CCCOc6cccc7ccccc67)c(C(=O)O)n(CCN6CCOCC6)c45)c(C)nn3C)cc2)CC1", "values": [{"measurement": "Ratio Ki(app)", "setting": "[5]", "result": 10}, {"measurement": "pKi", "setting": "[1]", "result": 9.62}, {"measurement": "pKi", "setting": "[2]", "result": 8.57}]}, {"smiles": "Cc1ccc(-c2cccc3c(CCCOc4cccc5ccccc45)c(C(=O)O)[nH]c23)cc1", "values": [{"measurement": "pKi", "setting": "[3]", "result": 6.82}, {"measurement": "pKi", "setting": "[4]", "result": 5.04}]}, {"smiles": "Cc1nn(C)c(COc2ccccc2)c1-c1cccc2c(CCCOc3cccc4ccccc34)c(C(=O)O)n(CCN3CCOCC3)c12", "values": [{"measurement": "pKi", "setting": "[1]", "result": 8.64}, {"measurement": "pKi", "setting": "[2]", "result": 6.94}]}, {"smiles": "CC(=O)N1CCN(c2ccc(OCc3nn(C)c(C)c3-c3cccc4c(CCCOc5cccc6ccccc56)c(C(=O)O)n(Cc5cccnc5)c34)cc2)CC1", "values": [{"measurement": "pKi", "setting": "[1]", "result": 8.74}, {"measurement": "pKi", "setting": "[2]", "result": 7.01}]}, {"smiles": "Cc1ccccc1-c1cccc2c(CCCO)c(C(=O)O)[nH]c12", "values": [{"measurement": "inhibition", "setting": "[6]", "result": "inactive"}]}, {"smiles": "Cc1nn(C)c(COc2ccc(N3CCN(S(=O)(=O)N4CCOCC4)CC3)cc2)c1-c1cccc2c(CCCOc3cccc4ccccc34)c(C(=O)O)n(CCN3CCOCC3)c12", "values": [{"measurement": "pKi", "setting": "[1]", "result": 9.32}, {"measurement": "pKi", "setting": "[2]", "result": 7.91}]}, {"smiles": "O=C(O)c1[nH]c2ccccc2c1CCCCC1CCCCC1", "values": [{"measurement": "pKi", "setting": "[7]", "result": 5.36}, {"measurement": "pKi", "setting": "Bcl-2-like protein 1 [8]", "result": "< 5.00"}, {"measurement": "pKi", "setting": "[9]", "result": "< 5.00"}]}, {"smiles": "Cc1nn(C)c(C)c1-c1cccc2c(CCCOc3cccc4ccccc34)c(C(=O)O)n(CCN3CCOCC3)c12", "values": [{"measurement": "pKi", "setting": "[3]", "result": "> 8.00"}, {"measurement": "pKi", "setting": "[4]", "result": 8.40}, {"measurement": "pKi", "setting": "Albumin", "result": 5.84}, {"measurement": "pKi", "setting": "[1]", "result": 8.82}, {"measurement": "pKi", "setting": "[2]", "result": 7.46}]}, {"smiles": "Cc1ccccc1-c1cccc2c(CCCOc3cccc4ccccc34)c(C(=O)O)[nH]c12", "values": [{"measurement": "pKi", "setting": "[3]", "result": 7.46}, {"measurement": "pKi", "setting": "[4]", "result": 5.07}, {"measurement": "pKi", "setting": "Albumin", "result": "> 7.52"}]}, {"smiles": "CCS(=O)(=O)N1CCN(c2ccc(OCc3c(-c4cccc5c(CCCOc6cccc7ccccc67)c(C(=O)O)n(CCN6CCOCC6)c45)c(C)nn3C)cc2)CC1", "values": [{"measurement": "pKi", "setting": "[1]", "result": 9.70}, {"measurement": "pKi", "setting": "[2]", "result": 8.31}]}, {"smiles": "Cc1nn(C)c(COc2ccc(N3CCN(S(C)(=O)=O)CC3)cc2)c1-c1cccc2c(CCCOc3cccc4ccccc34)c(C(=O)O)n(CCN3CCOCC3)c12", "values": [{"measurement": "pKi", "setting": "[10]", "result": "< 6.18"}, {"measurement": "pKi", "setting": "Bcl-2-like protein 1 [11]", "result": "< 6.18"}, {"measurement": "pKi", "setting": "Bcl-2-like protein 2", "result": "< 6.18"}, {"measurement": "pKi", "setting": "Bcl-2-related protein A1", "result": "< 6.18"}, {"measurement": "inhibition", "setting": "[12]", "result": "Active"}, {"measurement": "inhibition", "setting": "[13]", "result": "Active"}, {"measurement": "fraction unbound at 4.5 h", "setting": "[14]", "result": "< 0.01"}, {"measurement": "fold change (FC)", "setting": "[15]", "result": 45}]}, {"smiles": "CCOC(=O)c1c(CCCOc2cccc3ccccc23)c2cccc(-c3c(C)nn(C)c3COc3ccc(N4CCNCC4)cc3)c2n1CCN1CCOCC1", "values": [{"measurement": "pKi", "setting": "[1]", "result": 8.70}, {"measurement": "pKi", "setting": "[2]", "result": 7.92}]}, {"smiles": "Cc1nn(C)c(COc2ccc(N3CCN(S(=O)(=O)N(C)C)CC3)cc2)c1-c1cccc2c(CCCOc3cccc4ccccc34)c(C(=O)O)n(CCN3CCOCC3)c12", "values": [{"measurement": "pKi", "setting": "[1]", "result": 9.35}, {"measurement": "pKi", "setting": "[2]", "result": 8.10}]}, {"smiles": "O=C(O)c1[nH]c2c(-c3ccccc3)cccc2c1CCCOc1cccc2ccccc12", "values": [{"measurement": "pKi", "setting": "[3]", "result": 6.89}, {"measurement": "pKi", "setting": "[4]", "result": 5.28}]}, {"smiles": "O=C(O)c1[nH]c2ccccc2c1CCCO", "values": [{"measurement": "pKi", "setting": "Albumin", "result": "< 4.00"}, {"measurement": "inhibition", "setting": "[6]", "result": "inactive"}]}]}
